Measured values reported in publication PMC11051419, “Structural Insights into the Marine Alkaloid Discorhabdin G as a Scaffold towards New Acetylcholinesterase Inhibitors” (Marine Drugs, 2024).
Read-outs that look alike come from different tables or passages of the source.

How the values were obtained:
[1] = biological target: T1, horse serum butyrylcholinesterase (BChE) (Equus caballus, UniProt P81908); test: Inhibition of horse serum butyrylcholinesterase (modified Ellman method); assay type: biochemical; settings: for IC50: Ellman method, pH 7.4, 25 °C, 3 as acetate salt; for type of inhibition against BChE: kinetic analysis, Dixon plot (Figure S4)
T1 construct: human recombinant AChE (hAChE), and horse serum BChE; purchased Sigma-Aldrich; host or cells: horse serum
T1 sequence (P81908 whole entry): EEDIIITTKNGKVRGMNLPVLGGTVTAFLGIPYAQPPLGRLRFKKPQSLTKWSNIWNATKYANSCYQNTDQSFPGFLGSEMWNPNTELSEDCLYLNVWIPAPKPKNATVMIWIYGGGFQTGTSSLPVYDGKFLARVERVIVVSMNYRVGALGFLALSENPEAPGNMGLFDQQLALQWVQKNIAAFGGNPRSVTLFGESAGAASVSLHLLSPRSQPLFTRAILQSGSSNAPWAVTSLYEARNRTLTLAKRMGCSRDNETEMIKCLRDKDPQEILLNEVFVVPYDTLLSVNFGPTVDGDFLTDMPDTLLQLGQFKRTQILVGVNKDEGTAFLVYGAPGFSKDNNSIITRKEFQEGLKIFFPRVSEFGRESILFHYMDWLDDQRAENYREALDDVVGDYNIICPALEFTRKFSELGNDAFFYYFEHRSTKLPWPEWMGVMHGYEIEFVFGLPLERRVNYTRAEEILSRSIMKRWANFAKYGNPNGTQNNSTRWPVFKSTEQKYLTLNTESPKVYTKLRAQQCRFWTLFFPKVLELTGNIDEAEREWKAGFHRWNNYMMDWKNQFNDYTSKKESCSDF
Method: (§1) The inhibition of cholinesterase activity was determined using a modification of the Ellman method, which was adapted for microtiter plates. Stock solutions of 3, 7, and 8 (2 mg/mL) were prepared in pure EtOH. […] Stock solutions of the potential inhibitors and the positive controls were added to the microtiter plate wells and progressively diluted in 100 mM potassium phosphate buffer (pH 7.4) to a final volume of 50 μL. Then, 100 μL acetylthiocholine chloride (1 mM) and 5,5′-dithiobis-2-nitrobenzoic acid (0.5 mM) in 100 mM potassium phosphate buffer (pH 7.4) was added into the microtiter plate wells. The cholinesterases that were used (eeAChE, hAChE, and BChE; all from Sigma-Aldrich, St. Louis, MO, USA) were dissolved in 100 mM potassium phosphate buffer (pH 7.4) to a final concentration of 0.0075 U/mL. Each cholinesterase solution (50 μL) was added into the microtiter plate wells to start the reaction, which was followed spectrophotometrically at 405 nm at 25 °C over 5 min using a kinetic microplate reader (Dynex Technologies Inc., Chantilly, VA, USA). Blank reactions without inhibitors were run with the appropriate dilutions of EtOH, and the readings were corrected according to the corresponding blanks. Each measurement was repeated at least three times. […] The data were analyzed using the OriginPro software (OriginPro 2021 (9.8), OriginLab Corporation, Northampton, MA, USA).

[2] = biological target: T2, human recombinant acetylcholinesterase (hAChE) (Homo sapiens, UniProt P22303); test: Inhibition of human recombinant acetylcholinesterase (modified Ellman method); assay type: biochemical; settings: for Ki: Dixon plot, substrate 0.125, 0.25, 0.5 mM; for Ki / IC50: 3 as acetate salt; for IC50: Ellman method, pH 7.4, 25 °C; for type of inhibition against hAChE: kinetic analysis, Dixon plot (Figure S4)
T2 construct: purchased Sigma-Aldrich
T2 sequence (P22303 32-614): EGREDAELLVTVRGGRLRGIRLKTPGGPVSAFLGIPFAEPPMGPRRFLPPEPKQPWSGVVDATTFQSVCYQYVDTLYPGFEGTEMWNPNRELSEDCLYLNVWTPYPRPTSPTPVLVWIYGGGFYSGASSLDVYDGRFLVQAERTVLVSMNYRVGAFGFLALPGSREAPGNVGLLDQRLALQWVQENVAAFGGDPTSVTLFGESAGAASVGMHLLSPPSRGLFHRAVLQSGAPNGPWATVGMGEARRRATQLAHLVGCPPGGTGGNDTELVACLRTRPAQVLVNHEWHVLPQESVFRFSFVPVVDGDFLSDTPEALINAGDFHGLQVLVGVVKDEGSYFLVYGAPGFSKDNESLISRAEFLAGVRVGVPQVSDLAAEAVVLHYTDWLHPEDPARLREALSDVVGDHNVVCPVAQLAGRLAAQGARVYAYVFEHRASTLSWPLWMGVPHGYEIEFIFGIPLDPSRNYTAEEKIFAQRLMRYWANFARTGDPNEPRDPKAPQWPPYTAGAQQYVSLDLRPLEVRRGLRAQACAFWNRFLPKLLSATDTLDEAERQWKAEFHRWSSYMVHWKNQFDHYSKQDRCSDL
Method: as §1

[3] = biological target: T3, electric eel acetylcholinesterase (eeAChE) (Electrophorus electricus, UniProt O42275); test: Inhibition of electric eel acetylcholinesterase (modified Ellman method); assay type: biochemical; settings: for Ki: Dixon plot, substrate 0.125, 0.25, 0.5 mM; for Ki / IC50: 3 as acetate salt; for IC50: Ellman method, pH 7.4, 25 °C; for type of inhibition against eeAChE: kinetic analysis, Dixon plot (Figure S4)
T3 construct: purchased Sigma-Aldrich
T3 sequence (O42275 24-633): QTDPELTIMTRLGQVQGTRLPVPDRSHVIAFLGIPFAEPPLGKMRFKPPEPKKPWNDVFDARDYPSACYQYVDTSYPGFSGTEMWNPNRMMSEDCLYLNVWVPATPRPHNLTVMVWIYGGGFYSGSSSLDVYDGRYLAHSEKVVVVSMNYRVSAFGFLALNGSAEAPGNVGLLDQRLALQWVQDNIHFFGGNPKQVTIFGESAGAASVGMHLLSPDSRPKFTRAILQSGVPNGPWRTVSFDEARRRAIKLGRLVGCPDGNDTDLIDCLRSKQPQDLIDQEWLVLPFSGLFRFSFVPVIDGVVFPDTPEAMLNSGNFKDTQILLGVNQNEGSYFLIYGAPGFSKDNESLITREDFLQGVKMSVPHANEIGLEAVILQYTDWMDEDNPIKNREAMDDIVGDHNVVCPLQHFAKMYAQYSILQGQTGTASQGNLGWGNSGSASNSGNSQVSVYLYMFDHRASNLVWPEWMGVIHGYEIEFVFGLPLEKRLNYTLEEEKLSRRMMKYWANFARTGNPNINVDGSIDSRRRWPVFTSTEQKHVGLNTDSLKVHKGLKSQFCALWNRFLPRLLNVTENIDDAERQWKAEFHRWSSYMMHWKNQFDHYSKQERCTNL
Method: as §1

[4] = biological target: T1, horse serum butyrylcholinesterase (BChE); settings: cited from earlier work
[5] = biological target: T2, human recombinant acetylcholinesterase (hAChE); settings: cited from earlier work
[6] = system: neuromuscular transmission or skeletal muscle function; settings: electrophysiological study; cited from earlier work
[7] = biological target: T3, electric eel acetylcholinesterase (eeAChE); settings: cited from earlier work
[8] = discorhabdin G as trifluoroacetate (TFA) salt, ref Botić et al. [5]

Row | Compound | IC50 [1] | type of inhibition against BChE [1] | Ki [2] | IC50 [2] | type of inhibition against hAChE [2] | Ki [3] | IC50 [3] | type of inhibition against eeAChE [3] | further results
1 | Cc1nc2c3n1CCN=C3c1ccccc1C2=O [Compound 3, 5-methyl-2H-benzo[h]imidazo[1,5,4-de]quinoxalin-7(3H)-one] | > 400 µM | reversible competitive | 5.8 µM | 16.9 µM | reversible competitive | 7.3 µM | 13.5 µM | reversible competitive | –
2 | Cc1nc2c(o1)C(=O)c1ccccc1C2=O [Compound 7, 2-methylnaphtho[2,3-d]oxazole-4,9-dione] | 145 µM | reversible competitive | 50 µM | 234 µM | reversible competitive | 65 µM | 188 µM | reversible competitive | Ki ([1]; Dixon plot, substrate 0.125, 0.25, 0.5 mM): 50 µM
3 | CC(=O)NC1=C2NCCN=C2c2ccccc2C1=O [Compound 8, N-(6-oxo-2,3,4,6-tetrahydrobenzo[f]quinoxalin-5-yl)acetamide] | > 400 µM | – | – | > 400 µM | – | – | > 400 µM | – | –
4 | CN(C)C(=O)Oc1cccc([N+](C)(C)C)c1 [Neostigmine methylsulfate, reference compound] | 83.7 µM | – | – | – | – | – | 6 µM | – | –
5 | discorhabdin G [Compound 1] | – | – | – | – | – | – | – | – | IC50 [4, 8]: 7 µM; Ki [4, 8]: 5 µM; type of inhibition against BChE ([4]; previously observed): reversible competitive; IC50 [5, 8]: 116 µM; Ki [5, 8]: 56.2 µM; type of inhibition against hAChE ([5]; previously observed): reversible competitive; adverse effects on neuromuscular transmission or skeletal muscle function [6]: no adverse effects; IC50 [7, 8]: 1.3 µM; Ki [7, 8]: 1.6 µM; type of inhibition against eeAChE ([7]; previously observed): reversible competitive
